Laboratory results taken from patent publication US20120046314A1, “[…] USE IN TREATING OR […]” (MITOS, INC., priority 2005, published 2012).

Assays:
[1] = system: Superoxide dismutase 2 (SOD2); test: Gene expression in adipose tissue of Tempol-fed mice (Affymetrix MOE430A 2.0 array); assay type: in vivo
Method: (§1) In a further gene expression study, Tempol was administered to experimental mice at a dose of 5 g/kg of diet from 12 months through 15 months. Mice receiving the same diet without the addition of Tempol were used as a negative control. At the age of 15 months, the adipose tissue of the experimental animals was obtained. The expression of a broad spectrum of genes in the adipose tissue was assessed using chip-based microarray technology. Specifically, in this case an Affymetrix MOE430A 2.0 array, containing 12,960 genes, was employed. Such chips are well known in the art and are widely used to assess gene expression.

Brain protein I3 (BRI3) = test: as above; assay type: in vivo
Method: as §1

[2] = system: p53-related apoptosis effector related to PMP-22 (PERP); test: as above; assay type: in vivo
Method: as §1

Cyclooxygenase 1 (COX-1) = test: as above; assay type: in vivo
Method: as §1

Sirtuin 2 (SIRT2) = test: as above; assay type: in vivo
Method: as §1

[3] = system: Hypoxia-inducible factor, alpha subunit (HIF1A); test: as above; assay type: in vivo
Method: as §1

[4] = system: Glutathione S-transferase M3 (GSTM3); test: as above; assay type: in vivo
Method: as §1

[5] = system: Uncoupling protein 2 (UCP2); test: as above; assay type: in vivo
Method: as §1

[6] = system: cancer-related proteins in the cancerous tissue; test: Example 1: protein levels in cancerous tissue of patient diagnosed with cancer after Tempol; assay type: in vivo, human; conditions: 70-kilogram patient diagnosed with cancer; 1500 mg per day for 180 days
Method: (§2) A 70-kilogram patient diagnosed with cancer is administered a dose of 1500 mg of Tempol per day for 180 days. This may be administered in a single dose, or may be administered as a number of smaller doses over a 24-hour period: for example, three 500-mg doses at eight-hour intervals. Following treatment, the protein levels of elongation factor-1 delta, ADAM12, cathepsin B, peroxisome proliferator-activated receptor-δ, hypoxia-inducible factor alpha subunit, superoxide dismutase 2, uncoupling protein 2, and cyclooxygenase 1 in the cancerous tissue are reduced, and the levels of mitogen-activated protein kinase kinase 5, glutathione S-transferase M3, PERP, sirtuin 2, and brain protein I3 are increased.

Elongation factor-1-δ = test: Gene expression in cardiac tissue of Tempol-fed mice (chip-based microarray); assay type: in vivo
Method: (§3) To assess the effects of Tempol on gene expression, Tempol was administered to experimental mice at a dose of 5 mg/g of food from 14 months to 31 months after birth. Mice receiving the same food without the addition of Tempol were used as a negative control. At the age of 31 months, the experimental animals were sacrificed and the hearts were surgically removed. The expression of a broad spectrum of genes in the cardiac tissue was assessed using chip-based microarray technology. Such chips are well known in the art and are widely used to assess gene expression.

Meltrin-alpha (ADAM12) = test: as above; assay type: in vivo
Method: as §3

Cathepsin B = test: as above; assay type: in vivo
Method: as §3

[7] = system: Peroxisome Proliferator-Activated Receptor-δ; test: as above; assay type: in vivo
Method: as §3

[8] = system: Mitogen activated protein kinase kinase 5; test: as above; assay type: in vivo
Method: as §3

[9] = system: cancer-related proteins in the cancerous tissue; test: Example 2: protein levels in patient with familial risk factors for cancer after Tempol; assay type: in vivo, human; conditions: 70-kilogram patient with familial risk factors, no symptoms; 1500 mg per day for 180 days
Text: as §2, with “This” for “A 70-kilogram patient diagnosed with cancer is administered a dose of 1500 mg of Tempol per day for 180 days. This”

[10] = 5 g/kg of diet from 12 through 15 months
[11] = Tempol-treated vs control mice, negative = downregulated, P Value 0.004
[12] = reduction in Tempol-treated animals
[13] = 5 mg/g of food from 14 to 31 months, mouse tp51
[14] = 5 mg/g of food from 14 to 31 months, mouse tp52
[15] = 5 mg/g of food from 14 to 31 months, mouse tp53
[16] = Tempol-treated vs control mice, negative = downregulated

## CC1(C)CC(O)CC(C)(C)N1[O] [Tempol, 4-hydroxy-2,2,6,6-tetramethylpiperidine-1-oxyl]
[1]; [10]
  SOD2 expression, Mean (Tempol-treated mice): 4423
[1]; [11]
  SOD2 expression Fold change: −1.33 fold
[1]; [12]
  SOD2 expression reduced (fold): 1.33 fold
Brain protein I3 (BRI3); [10]
  BRI3 expression, Mean (Tempol-treated mice): 1835
Brain protein I3 (BRI3); Tempol-treated vs control mice, upregulated, P Value 0.003
  BRI3 expression Fold change: 1.18 fold
[2]; [10]
  PERP expression, Mean (Tempol-treated mice): 82
[2]; Tempol-treated vs control mice, upregulated, P Value 0.049
  PERP expression Fold change: 1.66 fold
Cyclooxygenase 1 (COX-1); [10]
  COX-1 expression, Mean (Tempol-treated mice): 331
Cyclooxygenase 1 (COX-1); Tempol-treated vs control mice, negative = downregulated, P Value 0.006
  COX-1 expression Fold change: −1.18 fold
Cyclooxygenase 1 (COX-1); [12]
  COX-1 expression reduced (fold): 1.18 fold
Sirtuin 2 (SIRT2); [10]
  SIRT2 expression, Mean (Tempol-treated mice): 686
Sirtuin 2 (SIRT2); Tempol-treated vs control mice, upregulated, P Value 0.048
  SIRT2 expression Fold change: 1.16 fold
[3]; [10]
  HIF1A expression, Mean (Tempol-treated mice): 2203
[3]; [11]
  HIF1A expression Fold change: −1.23 fold
[3]; [12]
  HIF1 alpha expression reduced (fold): 1.23 fold
[4]; [10]
  GSTM3 expression, Mean (Tempol-treated mice): 74
[4]; Tempol-treated vs control mice, upregulated, P Value 0.001
  GSTM3 expression Fold change: 7.52 fold
[5]; [10]
  UCP2 expression, Mean (Tempol-treated mice): 2140
[5]; Tempol-treated vs control mice, negative = downregulated, P Value 0.012
  UCP2 expression Fold change: −1.61 fold
[5]; [12]
  UCP2 expression reduced (fold): 1.61 fold
[6]
  levels of MAPKK5, GSTM3, PERP, sirtuin 2 and brain protein I3: increased
  protein levels of elongation factor-1 delta, ADAM12, cathepsin B, PPAR-δ, HIF alpha subunit, SOD2, UCP2 and COX-1 in the cancerous tissue: reduced
Elongation factor-1-δ; [13]
  Elongation factor-1-δ expression, TEMPOL-treated mice tp51: 12
Elongation factor-1-δ; [14]
  Elongation factor-1-δ expression, TEMPOL-treated mice tp52: 115
Elongation factor-1-δ; [15]
  Elongation factor-1-δ expression, TEMPOL-treated mice tp53: 185
Elongation factor-1-δ; [16]
  Elongation factor-1-δ expression Fold change: −5.9 fold
Elongation factor-1-δ; [12]
  Elongation factor-1-δ expression reduced (fold): 5.9 fold
Meltrin-alpha (ADAM12); [13]
  ADAM12 expression, TEMPOL-treated mice tp51: −16
Meltrin-alpha (ADAM12); [14]
  ADAM12 expression, TEMPOL-treated mice tp52: −4
Meltrin-alpha (ADAM12); [15]
  ADAM12 expression, TEMPOL-treated mice tp53: −14
Meltrin-alpha (ADAM12); [16]
  ADAM12 expression Fold change: −2.3 fold
Meltrin-alpha (ADAM12); [12]
  ADAM12 expression reduced (fold): 2.3 fold
Cathepsin B; [13]
  Cathepsin B expression, TEMPOL-treated mice tp51: −12
Cathepsin B; [14]
  Cathepsin B expression, TEMPOL-treated mice tp52: 6
Cathepsin B; [15]
  Cathepsin B expression, TEMPOL-treated mice tp53: 13
Cathepsin B; [16]
  Cathepsin B expression Fold change: −2.8 fold
Cathepsin B; [12]
  Cathepsin B expression reduced (fold): 2.8 fold
[7]; [13]
  PPAR-δ expression, TEMPOL-treated mice tp51: 1
[7]; [14]
  PPAR-δ expression, TEMPOL-treated mice tp52: 19
[7]; [15]
  PPAR-δ expression, TEMPOL-treated mice tp53: 28
[7]; [16]
  PPAR-δ expression Fold change: −2.3 fold
[7]; [12]
  PPAR-δ expression reduced (fold): 2.3 fold
[8]; [13]
  MAPKK5 expression, TEMPOL-treated mice tp51: 41
[8]; [14]
  MAPKK5 expression, TEMPOL-treated mice tp52: 84
[8]; [15]
  MAPKK5 expression, TEMPOL-treated mice tp53: 63
[8]; Tempol-treated vs control mice, upregulated
  MAPKK5 expression Fold change: 2.2 fold
[9]
  levels of MAPKK5, GSTM3, PERP, sirtuin 2 and brain protein I3: increased
  protein levels of elongation factor-1 delta, ADAM12, cathepsin B, PPAR-δ, HIF alpha subunit, SOD2, UCP2 and COX-1 in the cancerous tissue: reduced
